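Tested at 5 concentrations; 48 h exposure; 96-well plates; endpoints linearly interpolated, else capped at highest concentration. TGI: concentration producing complete growth inhibition.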
Key:
Assay in all cases: DTP human tumour cell line panel, 48 h
[1] = tested on: 786-0 renal
[2] = tested on: A498 renal
[3] = tested on: A549 NSCLC
[4] = tested on: ACHN renal
[5] = tested on: BT-549 breast
[6] = tested on: CAKI-1 renal
[7] = tested on: CCRF-CEM leukemia
[8] = tested on: COLO 205 colon
[9] = tested on: DU-145 prostate
[10] = tested on: EKVX NSCLC
[11] = tested on: HCC-2998 colon
[12] = tested on: HCT-116 colon
[13] = tested on: HCT-15 colon
[14] = tested on: HL-60(TB) leukemia
[15] = tested on: HOP-62 NSCLC
[16] = tested on: HOP-92 NSCLC
[17] = tested on: HS 578T breast
[18] = tested on: HT29 colon
[19] = tested on: IGROV1 ovarian
[20] = tested on: K-562 leukemia
[21] = tested on: KM12 colon
[22] = tested on: LOX IMVI melanoma
[23] = tested on: M14 melanoma
[24] = tested on: MALME-3M melanoma
[25] = tested on: MCF7 breast
[26] = tested on: MDA-MB-231 breast
[27] = tested on: MDA-MB-435
[28] = tested on: MDA-N
[29] = tested on: MOLT-4 leukemia
[30] = tested on: NCI-H226 lung
[31] = tested on: NCI-H23 lung
[32] = tested on: NCI-H460 lung
[33] = tested on: NCI-H522 lung
[34] = tested on: NCI/ADR-RES ovarian
[35] = tested on: OVCAR-3 ovarian
[36] = tested on: OVCAR-4 ovarian
[37] = tested on: OVCAR-5 ovarian
[38] = tested on: OVCAR-8 ovarian
[39] = tested on: PC-3 prostate
[40] = tested on: RPMI-8226 leukemia
[41] = tested on: RXF 393 renal
[42] = tested on: SF-268 CNS
[43] = tested on: SF-295 CNS
[44] = tested on: SF-539 CNS
[45] = tested on: SK-MEL-2 melanoma
[46] = tested on: SK-MEL-28 melanoma
[47] = tested on: SK-MEL-5 melanoma
[48] = tested on: SN12C renal
[49] = tested on: SNB-19 CNS
[50] = tested on: SNB-75 CNS
[51] = tested on: SR leukemia
[52] = tested on: SW-620 colon
[53] = tested on: T-47D breast
[54] = tested on: TK-10 renal
[55] = tested on: U251 CNS
[56] = tested on: UACC-257 melanoma
[57] = tested on: UACC-62 melanoma
[58] = tested on: UO-31 renal
[59] = tested on: SK-OV-3 ovarian

Compound: O=C1O[C@H]2C3C4CCC(C4[C@@H]2I)[C@H]13 (stereo partly specified)
- TGI [1]: > 100 µM
- TGI [2]: > 100 µM
- TGI [3]: > 100 µM
- TGI [4]: > 100 µM
- TGI [5]: > 100 µM
- TGI [6]: > 100 µM
- TGI [7]: > 100 µM
- TGI [8]: > 100 µM
- TGI [9]: > 100 µM
- TGI [10]: > 100 µM
- TGI [11]: > 100 µM
- TGI [12]: > 100 µM
- TGI [13]: > 100 µM
- TGI [14]: > 100 µM
- TGI [15]: > 100 µM
- TGI [16]: > 100 µM
- TGI [17]: > 100 µM
- TGI [18]: > 100 µM
- TGI [19]: > 100 µM
- TGI [20]: > 100 µM
- TGI [21]: > 100 µM
- TGI [22]: > 100 µM
- TGI [23]: > 100 µM
- TGI [24]: > 100 µM
- TGI [25]: > 100 µM
- TGI [26]: > 100 µM
- TGI [27]: > 100 µM
- TGI [28]: > 100 µM
- TGI [29]: > 100 µM
- TGI [30]: > 100 µM
- TGI [31]: > 100 µM
- TGI [32]: > 100 µM
- TGI [33]: > 100 µM
- TGI [34]: > 100 µM
- TGI [35]: > 100 µM
- TGI [36]: > 100 µM
- TGI [37]: > 100 µM
- TGI [38]: > 100 µM
- TGI [39]: > 100 µM
- TGI [40]: > 100 µM
- TGI [41]: > 100 µM
- TGI [42]: > 100 µM
- TGI [43]: > 100 µM
- TGI [44]: > 100 µM
- TGI [45]: > 100 µM
- TGI [46]: > 100 µM
- TGI [47]: > 100 µM
- TGI [48]: > 100 µM
- TGI [49]: > 100 µM
- TGI [50]: > 100 µM
- TGI [51]: > 100 µM
- TGI [52]: > 100 µM
- TGI [53]: > 100 µM
- TGI [54]: > 100 µM
- TGI [55]: > 100 µM
- TGI [56]: > 100 µM
- TGI [57]: > 100 µM
- TGI [58]: > 100 µM

Compound: CC(C)=CCC[C@@H](C)C1=CC(=O)C(C)=C(O)C1=O
- TGI [1]: 17.5 µM
- TGI [2]: 34.9 µM
- TGI [3]: 25 µM
- TGI [4]: 10.8 µM
- TGI [5]: 18.1 µM
- TGI [6]: 10.5 µM
- TGI [7]: 3.9 µM
- TGI [8]: 28.3 µM
- TGI [9]: 15.7 µM
- TGI [10]: 13.9 µM
- TGI [11]: 32.9 µM
- TGI [12]: 11.8 µM
- TGI [13]: 8.08 µM
- TGI [14]: 0.878 µM
- TGI [15]: 25.7 µM
- TGI [16]: 7.18 µM
- TGI [17]: 21.1 µM
- TGI [18]: 22.5 µM
- TGI [19]: 23.2 µM
- TGI [20]: 5.79 µM
- TGI [21]: 16.1 µM
- TGI [22]: 11.9 µM
- TGI [23]: 17.4 µM
- TGI [24]: 23.3 µM
- TGI [25]: 16 µM
- TGI [26]: 18.1 µM
- TGI [27]: 16.9 µM
- TGI [28]: 16.6 µM
- TGI [29]: > 23.5 µM
- TGI [30]: 22.8 µM
- TGI [31]: 21.1 µM
- TGI [32]: 43.1 µM
- TGI [33]: 2.78 µM
- TGI [34]: 11.3 µM
- TGI [35]: 15.8 µM
- TGI [36]: 14.2 µM
- TGI [37]: 27.5 µM
- TGI [38]: 4.83 µM
- TGI [39]: 18.2 µM
- TGI [40]: 5.64 µM
- TGI [41]: 5.92 µM
- TGI [42]: 24.3 µM
- TGI [43]: 27.3 µM
- TGI [45]: 26.3 µM
- TGI [46]: 31 µM
- TGI [47]: 16.4 µM
- TGI [59]: 31.8 µM
- TGI [48]: 22.6 µM
- TGI [49]: 29.4 µM
- TGI [50]: 14 µM
- TGI [51]: 5.98 µM
- TGI [52]: 33.5 µM
- TGI [53]: 6.35 µM
- TGI [54]: 15.7 µM
- TGI [55]: 38.7 µM
- TGI [56]: 25.5 µM
- TGI [57]: 24.1 µM
- TGI [58]: 13.5 µM

— PubChem BioAssay (NCI)
